Laboratory results published in patent US9694073B2, “Small molecule inhibitors of polynucleotide kinase/phosphatase, poly(ADP-ribose) polymerase and uses thereof” (THE GOVERNORS OF THE UNIVERSITY OF ALBERTA, priority 2009, dated 2017).

Key:
[1] = Clonogenic survival assay, compound alone; type: cell-based; settings: 1 μM, exposure up to 24 hours (data not shown)
Protocol: The effect of hPNKP inhibition by A12B4C3 on cellular survival following exposure to ionizing radiation was measured in A549, A549δPNKP and MDA-MB-231 and MDA-MB-231δPNKP cells by clonogenic assays. Cells were seeded on 60-mm tissue culture plates at various concentrations to give between about 100-1000 colonies per plate and returned to the incubator overnight to allow the cells to attach. For radiosensitization studies, the cells were incubated with or without 1 μM A12B4C3 for 2 hours before irradiation and then exposed to increasing doses of γ-radiation (^60Co Gammacell; Atomic Energy of Canada Limited, Ottawa). After irradiation, cells were incubated for a further 24 hours in the same media and then washed twice with phosphate-buffered saline (PBS) and incubated in fresh media without the inhibitor. Colonies were stained with crystal violet after 10 to 14 days and counted with an automated Colcount colony counter (Oxford Optronix, Oxford, UK).
A12B4C3 was first tested for inherent toxicity. Cytotoxicity was measured by cell proliferation assay after exposure of A549 human lung adenocarcinoma cells and MDA-MB-231 cells to different doses of the compound for 72 hours (FIG. 6A). A dose-dependent reduction in cell proliferation up to 50% at 100 μM A12B4C3 was observed. […] No effect on cell proliferation was detected after exposure to 1 μM A12B4C3.

[2] = system: A549 cells; assay: Cell proliferation (MTS) assay, compound alone; type: cell-based, human; settings: 72 hours
Protocol: (§1) To determine the effect of the inhibition of PNKP by small molecule inhibitors on cell proliferation we used the CellTiter 96™ AQueous Non-Radioactive Cell Proliferation Assay (Promega, Madison Wis.), better known as the MTS assay. Approximately 2.5×10^3 A549 cells were plated in triplicate in a 96-well plate with different concentration of A12B4C3. After 72 hours, 20 μl of CellTiter 96 Aqueous One Solution Reagent was added to each well and cells were incubated for 4 more hours at 37° C. The absorbance recorded at 490 nm was used as the number of living cells in culture (FLUOstar Optima, BMG Labtechnologies).
(§2) A12B4C3 was first tested for inherent toxicity. Cytotoxicity was measured by cell proliferation assay after exposure of A549 human lung adenocarcinoma cells and MDA-MB-231 cells to different doses of the compound for 72 hours (FIG. 6A). A dose-dependent reduction in cell proliferation up to 50% at 100 μM A12B4C3 was observed. […] While not wishing to be bound by theory, this may be indicative of a maximal level of drug uptake. No effect on cell proliferation was detected after exposure to 1 μM A12B4C3.

[3] = system: MDA-MB-231 cells; assay: Cell proliferation (MTS) assay, compound alone; type: cell-based, human; settings: 72 hours
Protocol: as §1, §2

[4] = biological target: T1, hPNKP 3'-phosphatase activity (Homo sapiens, UniProt Q96T60); assay: Conventional radio-gel assay for hPNKP 3'-phosphatase activity; type: biochemical
T1 construct: made in house; host or cells: bacteria (said only for the batch compared with aprataxin)

Compound: CCCCCCCCCCC(O)C1C=CC2C(=O)N(c3ccccc3)C(=O)C2N1Nc1ccc([N+](=O)[O-])cc1 (stereo not drawn) [Compound A12B4C3, 2-(1-hydroxyundecyl)-1-(4-nitrophenylamino)-6-phenyl-6,7a-dihydro-1H-pyrrolo[3,4-b]pyridine-5,7(2H,4aH)-dione]
- cytotoxicity by clonogenic survival assay [1]: lack of cytotoxicity
- effect on cell proliferation ([2]; 1 μM): No effect
- reduction in cell proliferation ([2]; 100 μM): up to 50%
- effect on cell proliferation ([3]; 1 μM): No effect
- reduction in cell proliferation ([3]; 100 μM): up to 50%
- inhibition of hPNKP phosphatase activity, radio-gel assay [4]: inhibited
